What all share (test): NCI anticancer screen, dose series, 48 h
Assay [1] relates to HL-60(TB) leukemia.
The subject of assay [2] is HOP-92 NSCLC.
In assay [3] the test system is HS 578T breast.
The test system of assay [4] is MDA-MB-435.
In assay [5] the test system is MDA-N.
Assay [6] deals with NCI/ADR-RES ovarian.
In assay [7] the test system is SK-MEL-2 melanoma.
The subject of assay [8] is DLD-1 colon.
Assay [9] relates to DMS 114 small cell lung.
For assay [10], the system named is HOP-18 NSCLC.
Assay [11] relates to KM20L2 colon.
Assay [12] deals with LXFL 529 NSCLC.
Assay [13] relates to M19-MEL melanoma.
Assay [14] has as its system RXF-631 renal.

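All cell lines were grown in 96-well plates and treated with compound for 48 hours. The concentration for full growth arrest is given as TGI.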 Where a SMILES comes first, the peptide text is derived from it.

As to `CC(=O)c1ccc2c(c1)N(CCCN1CCN(CCO)CC1)c1ccccc1C2`, the TGI in assay [1] stood at 29.2 µM; in assay [2] it was 27.4 µM; in assay [3], 31.2 µM; in assay [4], 21.7 µM; in assay [5] it was 26.7 µM; in assay [6], 27.7 µM. Moreover, in assay [7], the TGI is 33.5 µM.
Turning to `COC(=S)OC1CC(n2cnc3c(N)ncnc32)OC1CO[Si](C)(C)C(C)(C)C` (configuration not stated), the TGI was greater than 100 µM in assay [1]; 59.3 µM in assay [2]; 42.1 µM in [4]; 46.7 µM in assay [5]; 82.6 µM in assay [6]; 53.8 µM in assay [7].
Take `Nc1cc(-c2ccc(Cl)cc2)nn1-c1nc2ccccc2nc1-c1ccccc1`: the TGI in [1], in [2], in [3], in assay [4], in assay [5] and in assay [6] was greater than 100 µM throughout. In assay [7], this compound showed a TGI greater than 100 µM.
Regarding `O=c1[nH]c(Nc2ccc(Cl)cc2)nc2nc[nH]c12`, the TGI is greater than 100 µM in assay [1]; greater than 100 µM in assay [2]; 92.2 µM in assay [3]; greater than 100 µM in [4]; greater than 100 µM in assay [6]; greater than 100 µM in assay [7].
Consider `O=c1c2ccccc2[nH]c(=S)n1-c1ccc(N=Nc2cccc3cc(O)ccc23)cc1`, for which the TGI in [1], in [2], in assay [3], in [4], in [5] and in assay [6] was greater than 100 µM each time. For the same compound, the TGI in assay [7] was greater than 100 µM.
As to `Nc1ccc(Oc2ccc(C34CC5CC(C3)CC(c3ccc(Oc6ccc(N)cc6)cc3)(C5)C4)cc2)cc1`, the TGI is greater than 66.9 µM in assay [1]; 25.8 µM in assay [2]; greater than 62.8 µM in [3]; 40.7 µM in assay [4]; greater than 45.1 µM in assay [5]; greater than 60.4 µM in assay [6]. The TGI in assay [7] is 36.2 µM.
As to `COC(=O)C[C@H](COCc1ccccc1)NC(=O)C[C@H](COCc1ccccc1)NC(=O)OC(C)(C)C`, the TGI is greater than 100 µM in [1]; 65.5 µM in [2]; 67.1 µM in assay [3]; greater than 100 µM in assay [4]; 72.2 µM in assay [6]; greater than 100 µM in assay [7].
Consider `Cc1cnoc1NS(=O)(=O)c1ccc(Nc2nnc(/C=C/c3c(O)ccc4ccccc34)c(=O)n2N)cc1`, for which the TGI was 22.4 µM in assay [1]; greater than 100 µM in assay [2]; greater than 100 µM in assay [3]; 76.3 µM in [4]; 82.2 µM in assay [5]; 66.9 µM in assay [6].
`NC(=S)N1N=C(c2ccccc2O)CC1c1ccccc1` (configuration not stated): the TGI in assay [1] came out at 27.4 µM; in [2], 54.6 µM; in [3], 72.4 µM; in assay [4], 20.2 µM; in assay [5], 10.5 µM; in assay [6], 50.6 µM. Further, the TGI in assay [7] was 20.3 µM.
On to `COc1ccc(C(=O)N(C(=O)N2CCN(c3ccccc3)CC2)S(=O)(=O)c2ccccc2)cc1`, for which the TGI in assay [1] is 48.9 µM; in assay [2], 72.3 µM; in assay [3] it was 79.5 µM; in [4], greater than 100 µM; in [5], 65.4 µM; in [6], 66.7 µM. Moreover, in assay [7], the TGI came to 35 µM.
For the compound `COc1ccc(C2c3cc4c(cc3OC(O)(CO)C2C(=O)O)OCO4)cc1` (configuration not stated) (tested in a mixture with another compound), the TGI is 54.9 µM in assay [8]; 61.3 µM in [9]; 41.7 µM in [1]; greater than 100 µM in assay [10]; 41.7 µM in assay [2]; greater than 100 µM in assay [11]. For the same compound, the TGI came out at 31.1 µM in assay [12], 21.3 µM in [13], 42.9 µM in assay [14] and 71.8 µM in [7].
As for `CCC(C)C(NC(=O)C1CCCN1C(=O)C(CC(C)C)NC(=O)C(CC(C)C)NC(=O)C(N)CC(C)C)C(=O)NC(C(=O)NCC(=O)NC(CC(N)=O)C(=O)NC(CC(C)C)C(=O)NC(CC(C)C)C(=O)NC(CC(C)C)C(N)=O)C(C)C` (configuration not stated) (H-LLLPIVGNLLL-NH2; configuration not given here), the TGI in assay [1], in [2], in [3], in assay [4], in [5] and in assay [6] was greater than 50 µM in each case. In [7], this compound displayed a TGI greater than 50 µM.
In the case of `CC(=O)Oc1ccc(CO)cc1OC(C)=O`, the TGI is greater than 100 µM in assay [8]; greater than 100 µM in assay [9]; 75.2 µM in assay [1]; greater than 100 µM in assay [10]; greater than 100 µM in assay [2]; greater than 100 µM in assay [11]. The TGI in assay [12], in [13], in assay [14] and in [7] was greater than 100 µM in each case.
For `Cc1ccccc1NC(=O)CC(=O)N1N=C(N2c3ccccc3Sc3ccccc32)CC1c1ccccc1` (configuration not stated), the TGI in [8], in assay [9], in assay [2], in [11], in assay [12] and in [13] was greater than 100 µM in each case. Further, the TGI in [14] is greater than 100 µM.
As to `COc1cc([C@@H]2c3cc4c(cc3[C@@H](c3c(O)cc(O)c5c3O[C@H](c3ccc(O)c(O)c3)[C@H](OC(=O)c3cc(O)c(O)c(O)c3)C5)[C@H]3COC(=O)[C@H]23)OCO4)cc(OC)c1OC`, the TGI in [1] was 0.729 µM; in [2], greater than 100 µM; in assay [3] it was greater than 100 µM; in assay [4] it was 7.23 µM; in assay [5], greater than 100 µM; in [6] it was greater than 100 µM. This compound returned a TGI in assay [7] greater than 100 µM.

The values above are taken from PubChem BioAssay (NCI).
